Experimental data as given in PMC12040169 (PLOS Biology, 2025).

Test: in vitro
Conditions: human, hela cells, % viability

| SMILES | viability at 28.5 h, 10 µM [%] |
| --- | --- |
| COc1ccc(CN2CCC(N3CCCCC3)CC2)c(OC)c1 [CBK261848] | 103 |
| COc1ccc(Cn2nc(NC(=O)OC(C)C)c3ccccc32)cc1 [CBK048404] | 106 |
| Cc1cc(Cl)cc(Cl)c1S(=O)(=O)Nc1nc2c(s1)C(=O)CC(C)(C)C2 [CBK200034] | 104 |
| CCn1nc(NC(=O)CCn2c(C(F)F)cc3cccnc32)cc1C [CBK285072] | 83.8 |
| Cc1ccc(C)c(NS(=O)(=O)c2ccc(NC(=O)c3ccc(CN4CCOCC4)cc3)cc2)c1 [CBK264780] | 104 |
| Fc1ccc(-c2cn3ccnc3c(Nc3cccc(OC(F)(F)C(F)F)c3)n2)cc1Cl [CBK037265] | 98.1 |
| O=C(Nc1nnc(-c2ccco2)o1)c1ccc2c(c1)CCCC2 [CBK287425] | 79.1 |
| C=CCN1C(=O)CC2(C1=O)C(=O)N(Cc1ccc(S(=O)(=O)N(CC)CC)cc1)c1ccc(Cl)cc12 (stereo not shown) [CBK075412] | 98 |
| Brc1ccc(-n2cc(-c3ccccc3)c3c(NCc4ccccn4)ncnc32)cc1 [CBK266427] | 104 |
| O=C(Cn1nnc2ccccc21)NC(c1ccccc1)c1ccccc1 [CBK297488] | 110 |
| C[C@H](NC1=NC(=O)[C@@](C)(C(C)(C)O)S1)c1ccc(F)cc1 [CBK138436] | 98.1 |
| Cc1ccc(S(N)(=O)=O)cc1C(=O)NC(C)CCc1ccccc1 (stereo not shown) [CBK296671] | 87.2 |
| OCCCN1CCC(Oc2cncc(OCCN3CCOCC3)n2)C1 (stereo not shown) [CBK084494] | 95.9 |
| O=C(O)CSc1nc2ccc([N+](=O)[O-])cc2[nH]1 [CBK265192] | 86.9 |
| COc1ccccc1-c1cnc2[nH]c(=O)n(Cc3ccc(F)c(Cl)c3)c2n1 [CBK064662] | 103 |
| Cc1ccc(CNC(=O)Cc2csc(N3CCCC3=O)n2)n1C [CBK305642] | 98.6 |
| COCc1nc(C)c(C(=O)NC2CCCN(c3ccn(C)n3)C2=O)s1 (stereo not shown) [CBK306497] | 92.2 |
| C=CCn1c(SCC(=O)Nc2cccc(F)c2)nnc1-c1ccccc1O [CBK269620] | 83 |
| O=C(O)CCCNC(=O)COc1ccccc1OCC(=O)NCCCC(=O)O [CBK296089] | 90 |
| CCOC(=O)CSc1nc2ccc(I)cc2c(=O)n1Cc1ccccc1 [CBK266602] | 107 |
| CCC(=O)N1CCN(c2ccccc2NC(=O)c2ccc(C#N)cc2F)CC1 [CBK270110] | 81.8 |
| S=C(Nc1ccccc1)N1CCCCC1CN1CCCCC1 (stereo not shown) [CBK006196] | 112 |

| SMILES | viability at 28.5 h, 10 µM [%] |
| --- | --- |
| COc1ccc(Cl)cc1N1CCN(CC2CCCCC2)CC1 [CBK138336] | 77.8 |
| O=C1NCC2(CCN(C(=O)c3cccs3)CC2)Oc2ccccc21 [CBK282917] | 100 |
| COc1cc2c(cc1NS(=O)(=O)N1CCCCC1)oc1ccccc12 [CBK268355] | 85.8 |
| CCN(CC)CC(=O)Nc1ccc(Br)cc1C(=O)c1ccccc1 [CBK262983] | 109 |
| COc1ccc(C(=O)OC(C)(C)C)c(-c2cncc(NCc3ccco3)n2)c1 [CBK037751] | 87.8 |
| O=C(Cc1cccc2ccccc12)Nc1cc(C(=O)O)cc(C(=O)O)c1 [CBK268475] | 94.4 |
| O=C(O)CC1CCN(c2ccc(C(F)(F)F)cn2)CC1 [CBK286850] | 90.4 |
| O=C(Nc1ccc(OCc2nc3ccccc3s2)cc1)c1cccc(I)c1 [CBK267843] | 119 |
| CCn1c(CNC(=O)c2cn3cc(C)ccc3n2)nc2ccccc21 [CBK281395] | 89.4 |
| CCOC(=O)c1cccc(NS(=O)(=O)c2cccc3cccnc23)c1 [CBK034345] | 57.2 |
| Cc1csc2c(C3CCN(C(=O)c4cscn4)CC3)nc(C)n12 [CBK285246] | 80.2 |
| CN(C)CCCN1C(=O)C(O)=C(C(=O)c2ccc(F)cc2)C1c1cccnc1 (stereo not shown) [CBK264531] | 107 |
| Cc1ccc(SCCN2CCNCC2)cc1 [CBK266045G] | 99.6 |
| COc1ccc(/C=C(/C#N)C(=O)Nc2cccc(C)c2C)cc1C(=O)O [CBK262751] | 87.4 |
| COc1ccc(CCNC(=O)c2ncoc2-c2cccs2)cc1 [CBK283663] | 103 |
| CCC(=O)Oc1ccc(/N=C2/NC(C)(C)O2)cc1 [CBK010922] | 87.6 |
| CC(=O)Nc1ccc(S(=O)(=O)Nc2ccc(-c3nc4cc(C(=O)c5ccccc5)ccc4[nH]3)cc2)cc1 [CBK267819] | 99.2 |
| Cn1c2c(c(=O)n(C)c1=O)[C@@H]1C(C[C@](O)(COCc3ccccc3)[C@H]1O)C1(CCC1)N2 (stereo partly shown) [CBK303265] | 116 |
| CN(C)c1cccc(Nc2cc(-c3ccco3)ncn2)c1 [CBK091014] | 87.5 |
| CC1(C)CC(N(Cc2ccncc2)Cc2ccoc2)CC(C)(C)N1 [CBK283269] | 98.1 |
| O=C(CSc1nc2sc3c(c2c(=O)n1CCc1ccccc1)CCCC3)Nc1ccccc1 [CBK267281] | 112 |
| COc1cc(C)c(Cl)c(C)c1S(=O)(=O)NCc1ccc2c(c1)OCO2 [CBK266518] | 96 |

| SMILES | viability at 28.5 h, 10 µM [%] |
| --- | --- |
| O=C(NC(C(=O)O)C12CC3CC(CC(C3)C1)C2)c1ccc([N+](=O)[O-])cc1 (stereo not shown) [CBK261405] | 94.7 |
| Cc1ccccc1OCC(=O)Nc1c(C)n[nH]c1C [CBK266046C] | 106 |
| CN1CCOc2ccccc2C(=O)NC/C=C/CC2(CCN(C(=O)c3ccc(F)cc3)CC2)C1=O [CBK292055] | 92 |
| CCN(CC)C(=O)CN1CCCN(c2nccc(OCCN3CCOCC3)n2)CC1 [CBK084094] | 99.5 |
| N#C/C(=C/c1ccccc1OCc1cccc([N+](=O)[O-])c1)c1ccc(C(=O)O)cc1 [CBK268748] | 96.2 |
| O=C(NCc1ccccn1)C(=O)N/N=C/c1ccccc1[N+](=O)[O-] [CBK262204] | 96.4 |
| CC(=O)N1CCC(n2c(C3CC3)nc3sc(C)c(C)c3c2=O)CC1 [CBK282369] | 85.2 |
| Cc1nc2c(c(=O)[nH]1)CCN(Cc1cccc(Oc3ccccc3)c1)C2 [CBK283989] | 81.9 |
| CC(=O)Nc1nonc1-c1nc2ccccc2n1CCC#N [CBK062641] | 100 |
| COc1ccc(-c2nc(NC3CCCCC3)c3ccccc3n2)cc1 [CBK058109] | 95.6 |
| CC(C)(C)NC(=O)Cn1nc(-c2cc3c(s2)CCC3)oc1=O [CBK284714] | 101 |
| CCN(CC)C(=O)C1CN2CCc3cc(OC)c(OC)cc3C2CC1OC(C)=O (stereo not shown) [CBK022778] | 110 |
| Cc1csc(N2CCC(Nc3cc(CO)ccc3Cl)CC2)n1 [CBK306440] | 89.7 |
| Cn1ncc2c(=O)n(Cc3nc(C(C)(C)C)no3)cnc21 [CBK304906] | 87.9 |
| O=C(Nc1ccc(Br)c2cccnc12)c1ccc(Cn2cc(Cl)cn2)o1 [CBK265893] | 88.2 |
| O=C(Cn1cc(-c2ccc(CN3CCCCC3)cc2)nn1)NCc1ccc(Cl)cc1Cl [CBK167689] | 83.2 |
| O=C(CN1C(=O)c2ccccc2C1=O)Nc1cccc(C(=O)O)c1 [CBK287040] | 110 |
| Cc1cc(C(F)(F)F)n2ncc(C(=O)N3CCCC3c3ccco3)c2n1 (stereo not shown) [CBK306557] | 93.5 |
| O=C(Cc1ccsc1)Nc1snnc1-c1ccc(Cl)cc1 [CBK153243] | 94.5 |
| CC1CCN(c2ccc(S(=O)(=O)Nc3cc(C(=O)O)cc(C(=O)O)c3)cc2[N+](=O)[O-])CC1 [CBK263886] | 94.8 |
| Cc1cc(I)ccc1NC(=O)CCN1C(=O)c2cccc([N+](=O)[O-])c2C1=O [CBK263128] | 88.3 |
| CCCOc1ccc(C2(CCCCN3CCCC3)C(=O)Oc3ccc(C(C)(C)C)cc32)cc1 (stereo not shown) [CBK017655C] | 99.1 |

| SMILES | viability at 28.5 h, 10 µM [%] |
| --- | --- |
| O=C(Nc1ccccc1-c1nc2ccccc2[nH]1)c1ccncc1 [CBK270148] | 94.5 |
| CC(CN1CCOCC1)C(=O)N1CC(C(=O)N2CCN(c3ccccc3)CC2)C1 (stereo not shown) [CBK286047] | 90.6 |
| O=C(CSc1nc(O)c2c(-c3ccccc3)csc2n1)NCCc1ccccc1 [CBK268077] | 97.2 |
| COC(=O)c1ccccc1NC(=O)c1ccc(-n2cnnn2)cc1 [CBK058360] | 91.1 |
| CC(CN1CCCC1)NC(=O)c1ccc2c(c1)ncn2C (stereo not shown) [CBK281715] | 102 |
| Cc1nnnn1CCC(=O)NCCc1cn2ccccc2n1 [CBK306816] | 121 |
| COc1ccc(CCNS(=O)(=O)c2cc([N+](=O)[O-])ccc2C)cc1OC [CBK267412] | 94.2 |
| Cc1c(NC(=O)CN(c2ccccc2)S(=O)(=O)N(C)C)cccc1[N+](=O)[O-] [CBK269012] | 106 |
| COCc1cccc(-c2nccnc2Oc2cccc(OC)c2)c1 [CBK106958] | 90.6 |
| O=C(NCCn1nc2c(cc1=O)CCCCC2)c1cccs1 [CBK283277] | 100 |
| CCN1CCN(C(=O)Cc2ccc(OC)cc2)C(Cc2ccc(-c3ccncc3)cc2)C1=O (stereo not shown) [CBK285804] | 106 |
| Cn1cnnc1SCC(=O)N1CCc2ccccc21 [CBK287576] | 82.7 |
| COc1ccc(F)cc1-c1ccccc1CC1(C(=O)NCc2cccs2)CCOCC1 [CBK286416] | 93.7 |
| COc1ccc(S(=O)(=O)NCCCN2CCOCC2)c(C)c1C [CBK266519] | 110 |
| O=C(Cn1cc(C(=O)NCc2ccc(F)cc2)ccc1=O)NC1(c2ccccc2)CCCC1 [CBK286081] | 96.9 |
| Cc1ccc(C(=O)N2CCC(Cc3ccccc3-c3ccccc3)(C(=O)N(C)C)CC2)s1 [CBK285677] | 107 |
| Cc1ccccc1C(=O)NCCCNC(=O)c1ccccn1 [CBK269172] | 96.7 |
| CCC(COC)NS(=O)(=O)c1ccc(C(C)C)cc1 (stereo not shown) [CBK044587] | 108 |
| Cn1cc(CCC(=O)N2CCc3[nH]c4ccc(Cl)cc4c3C2)cn1 [CBK304636] | 82 |
| CCN1CCCc2cc(-c3cncn3CCCn3ccnc3C)ccc21 [CBK281810] | 109 |
| Cc1ccc(-c2nccnc2OCCc2c[nH]c3ccccc23)cc1C [CBK106850] | 96 |
| CCCc1cc(C(N)=O)c(NC(=O)c2sc3ccccc3c2Cl)s1 [CBK268178] | 103 |
